For one test, the system named is HCT116 cells. Kind of test: Whole cell cytotoxicity assay, Sulforhodamine B. The class given is cell-based. To be noted: Homo sapiens, HCT-116, HCT116, 96 hours incubation, SRB; for GI50: read-out: GI50 HCT116 cell growth; for IC50: read-out: IC50 values in this assay (HCT116 cell growth). The essentials: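 HCT116 cells (500/well) in DMEM/10% FBS/2 mM glutamine were preincubated 24 h, then exposed to compound for 96 h at 37 °C, 5% CO2, in duplicate. Cells were fixed with TCA and stained with sulforhodamine B (A570). GI50, TGI and LC50 were derived relative to a time-zero plate and an untreated control.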

Test [1] concerns the target T1, N-terminal His-tagged human Src (Homo sapiens, UniProt P12931).
T1 construct: His (N); purchased Upstate USA Inc, 706 Forest Street, Charlottesville, Va
Kind of test: Src kinase inhibition assay (33P-ATP filter assay). Type of test: biochemical.

The target of test [2] is T2, N-terminal His6-tagged recombinant human KDR, residues 790-end (Homo sapiens, UniProt P35968).
T2 construct: recombinant human KDR, residues 790-end; His6 (N); purchased Upstate USA Inc, 706 Forest Street, Charlottesville, Va
T2 sequence (P35968 790-1356 limits assumed): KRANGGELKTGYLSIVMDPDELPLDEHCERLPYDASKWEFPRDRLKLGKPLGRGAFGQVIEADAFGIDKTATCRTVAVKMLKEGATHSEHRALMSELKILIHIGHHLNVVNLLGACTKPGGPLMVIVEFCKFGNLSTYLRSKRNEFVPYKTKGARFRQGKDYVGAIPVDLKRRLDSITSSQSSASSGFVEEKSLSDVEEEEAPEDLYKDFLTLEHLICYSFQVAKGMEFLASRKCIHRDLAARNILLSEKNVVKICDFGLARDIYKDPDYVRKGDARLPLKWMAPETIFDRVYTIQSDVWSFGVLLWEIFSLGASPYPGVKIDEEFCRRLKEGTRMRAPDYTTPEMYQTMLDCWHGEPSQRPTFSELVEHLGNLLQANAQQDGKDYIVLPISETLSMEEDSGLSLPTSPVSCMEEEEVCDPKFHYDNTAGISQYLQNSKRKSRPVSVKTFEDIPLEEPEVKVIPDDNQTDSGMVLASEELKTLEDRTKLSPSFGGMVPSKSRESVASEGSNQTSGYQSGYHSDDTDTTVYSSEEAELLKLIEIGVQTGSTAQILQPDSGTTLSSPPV
As to the kind of experiment: KDR kinase inhibition assay (33P-ATP filter assay). The class given is biochemical. An outline of the steps: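 Radiometric filter assay: reaction started with Mg acetate (10 mM)/[γ-33P]ATP mix, run 40 min at room temperature in 8 mM MOPS pH 7.0 with 0.2 mM EDTA, MBP substrate (0.33 mg/mL) and recombinant KDR 790-end (5-10 mU). Phosphate incorporation by scintillation counting of P30 filtermats, compared with uninhibited reactions.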

[3] abbreviates: group with IC50 greater than 100 nM.

The structures appear in SMILES notation.

T1 sequence (P12931 whole entry): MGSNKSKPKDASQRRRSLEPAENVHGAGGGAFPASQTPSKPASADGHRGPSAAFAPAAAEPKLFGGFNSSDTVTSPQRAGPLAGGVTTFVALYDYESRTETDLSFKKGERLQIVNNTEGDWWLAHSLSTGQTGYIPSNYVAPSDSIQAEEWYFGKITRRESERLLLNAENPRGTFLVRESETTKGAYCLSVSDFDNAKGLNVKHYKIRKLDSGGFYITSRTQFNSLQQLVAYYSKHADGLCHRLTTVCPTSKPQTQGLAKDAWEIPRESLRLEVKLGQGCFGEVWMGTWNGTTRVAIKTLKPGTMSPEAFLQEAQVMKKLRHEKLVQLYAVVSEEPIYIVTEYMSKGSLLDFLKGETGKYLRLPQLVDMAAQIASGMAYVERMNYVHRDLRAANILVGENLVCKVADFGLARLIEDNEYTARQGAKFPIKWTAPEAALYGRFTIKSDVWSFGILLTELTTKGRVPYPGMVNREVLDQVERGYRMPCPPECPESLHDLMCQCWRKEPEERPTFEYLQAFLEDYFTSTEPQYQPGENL

The GI50 is the concentration giving 50% growth inhibition. Usually IC50 stands for the concentration at which inhibition is half-maximal. As for `COC(=O)c1cccc(-c2nc(Nc3cc(C)[nH]n3)cc(N3CCN(C)CC3)n2)c1` [Example 166, methyl 3-(4-(5-methyl-1H-pyrazol-3-ylamino)-6-(4-methylpiperazin-1-yl)pyrimidin-2-yl)benzoate], the GI50 with HCT116 cells is no more than 1000 nM. In addition, the IC50 in test [1] (40 minutes at room temperature) and in test [2] (40 minutes at room temperature) was no more than 100 nM each time.

With `Cc1ccc(-c2nc(Nc3cc(C)[nH]n3)cc(N3CCN(C)CC3)n2)cc1` [Compound 38, N-(5-methyl-1H-pyrazol-3-yl)-6-(4-methylpiperazin-1-yl)-2-p-tolylpyrimidin-4-amine], the 50% growth inhibitory concentration (GI50) with HCT116 cells is no more than 1000 nM. Also, the IC50 in test [1] (40 minutes at room temperature) and in test [2] (40 minutes at room temperature) was no more than 100 nM throughout.

Take `Cc1cc(Nc2cc(N3CCN(C)CC3)nc(-c3cccc(C(F)(F)F)c3)n2)n[nH]1` [Compound 101, N-(5-methyl-1H-pyrazol-3-yl)-6-(4-methylpiperazin-1-yl)-2-(3-(trifluoromethyl)phenyl)pyrimidin-4-amine]: the figures for the half-inhibitory concentration (IC50) (with HCT116 cells; in test [1] (setting [3]); in test [2] (setting [3])) were 1000 to 10000 nM, no more than 1000 nM and no more than 1000 nM, respectively.

`Cc1cc(Nc2cc(N3CCN(C)CC3)nc(-c3ccccc3)n2)n[nH]1` [Compound 8, N-(5-methyl-1H-pyrazol-3-yl)-6-(4-methylpiperazin-1-yl)-2-phenyl pyrimidin-4-amine]: the concentration for 50% growth inhibition (GI50) with HCT116 cells was no more than 1000 nM. In addition, the half-inhibitory concentration (IC50) in test [1] (40 minutes at room temperature) and in test [2] (40 minutes at room temperature) was no more than 100 nM in each case.

As for `Cc1cc(Nc2cc(N3CCN(C)CC3)nc(-c3ccc4ccccc4c3)n2)n[nH]1` [Example 135, N-(5-methyl-1H-pyrazol-3-yl)-6-(4-methylpiperazin-1-yl)-2-(naphthalen-2-yl)pyrimidin-4-amine], the 50% growth inhibitory concentration (GI50) in the test on HCT116 cells was no more than 1000 nM. Moreover, the IC50 in test [1] (40 minutes at room temperature) and in test [2] (40 minutes at room temperature) was no more than 100 nM throughout.

On to `Cc1cccc(-c2nc(Nc3cc(C)[nH]n3)cc(N(C)CCN(C)C)n2)c1` [Compound 52, N^4-(2-(dimethylamino)ethyl)-N^4-methyl-N^6-(5-methyl-1H-pyrazol-3-yl)-2-m-tolylpyrimidine-4,6-diamine], for which the 50% growth inhibitory concentration (GI50) in the test on HCT116 cells is no more than 1000 nM. The IC50 in test [1] (setting [3]) and in test [2] (setting [3]) was no more than 1000 nM each time.

Consider `Cc1cc(Nc2cc(N3CCN(C)CC3)nc(-c3ccccc3Cl)n2)n[nH]1` [Compound 37, 2-(2-chlorophenyl)-N-(5-methyl-1H-pyrazol-3-yl)-6-(4-methylpiperazin-1-yl)pyrimidin-4-amine], for which the 50% inhibitory concentration (IC50) was 1000 to 10000 nM in the test on HCT116 cells, no more than 100 nM in test [1] (40 minutes at room temperature) and no more than 100 nM in test [2] (40 minutes at room temperature).

Take `Cc1cc(Nc2cc(N3CCN(C)CC3)nc(-c3cc4ccccc4o3)n2)n[nH]1` [Compound 1, 2-(benzofuran-2-yl)-N-(5-methyl-1H-pyrazol-3-yl)-6-(4-methylpiperazin-1-yl)pyrimidin-4-amine]: the 50% growth inhibitory concentration (GI50) in the test with HCT116 cells was no more than 1000 nM. For the same compound, the concentration for half-maximal inhibition (IC50) in test [1] (40 minutes at room temperature) and in test [2] (40 minutes at room temperature) was no more than 100 nM throughout.

As to `COc1ccc(-c2nc(Nc3cc(C)[nH]n3)cc(N3CCN(C)CC3)n2)cc1` [Compound 41, 2-(4-methoxyphenyl)-N-(5-methyl-1H-pyrazol-3-yl)-6-(4-methylpiperazin-1-yl)pyrimidin-4-amine], the 50% growth inhibitory concentration (GI50) in the test with HCT116 cells is no more than 1000 nM. In addition, the IC50 in test [1] (40 minutes at room temperature) and in test [2] (40 minutes at room temperature) was no more than 100 nM in each case.

Regarding `Cc1cc(Nc2cc(N3CCN(C)CC3)nc(-c3cccc(Cl)c3)n2)n[nH]1` [Compound 36, 2-(3-chlorophenyl)-N-(5-methyl-1H-pyrazol-3-yl)-6-(4-methylpiperazin-1-yl)pyrimidin-4-amine], the 50% growth inhibitory concentration (GI50) in the test on HCT116 cells is no more than 1000 nM. The IC50 in test [1] (40 minutes at room temperature) and in test [2] (40 minutes at room temperature) was no more than 100 nM in each case.

The record behind these values is patent US20090029992A1, “SUBSTITUTED PYRAZOLE COMPOUNDS” (priority 2007, published 2009).
